Drawing on paper PMC5971061, “Differential Effects of Linkers on the Activity of Amphiphilic Tobramycin Antifungals” (Molecules : A Journal of Synthetic Chemistry and Natural …, 2018), this text covers MIC and MIC values for one molecule.

In brackets after ≈: the same amount, converted by molar mass.

In experiment [1] the test system is Candida glabrata clinical isolate CG3. The experiment is described as follows: MIC, broth microdilution (CLSI M27-A3), CG3. Type of experiment: cell-based. To be noted: Nakaseomyces glabratus; MIC-0, CG3, 35 °C 48 h. The protocol:
(§1) The final concentrations of compounds 3, 4, 7a, 7b, 9, and 16, as well as that of TOB tested in this study ranged from 0.24–62.5 μg/mL. CAS was used as a positive control and the final concentrations tested for CAS ranged from 0.03–31.3 μg/mL. Briefly, overnight yeast cultures were grown in yeast peptone dextrose (YPD) broth and the cell density was adjusted to an OD600 of 0.12 (~1 × 10^6 CFU/mL) by using a spectrophotometer. Yeast cell suspensions were further diluted to achieve 1–5 × 10^3 CFU/mL in RPMI 1640 medium, and 100 μL of these yeast cells was added to 96-well microtiter plates containing RPMI 1640 medium and titrated compounds. Each test was performed in triplicate. The plates were incubated at 35 °C for 48 h.

In experiment [2] the test system is Candida glabrata ATCC 2001 (strain H). The experiment in a line: MIC, broth microdilution (CLSI M27-A3), yeast strain H. The conditions noted are these: Nakaseomyces glabratus, ATCC2001; MIC-0, strain H, 35 °C 48 h. Type of experiment: cell-based. On the procedure: as §1
Background: In broth dilution the organism is exposed to a series of concentrations in liquid medium.

The test system of experiment [3] is C. albicans ATCC 90819(R) (strain D). The experiment is described as follows: MIC, broth microdilution (CLSI M27-A3), yeast strain D. To be noted: Candida albicans, ATCC90819; MIC-0, strain D, 35 °C 48 h. Type of experiment: cell-based. The protocol: as §1
The test system of experiment [4] is C. albicans ATCC MYA-1003(R) (strain G). The experiment is described as follows: MIC, broth microdilution (CLSI M27-A3), yeast strain G. Type of experiment: cell-based. To be noted: Candida albicans; MIC-0, strain G, 35 °C 48 h. The protocol: as §1
In experiment [5] the test system is Candida parapsilosis clinical isolate CP3. The experiment in a line: MIC, broth microdilution (CLSI M27-A3), CP3. Type of experiment: cell-based. The conditions noted are these: MIC-0, CP3, 35 °C 48 h. On the procedure:
as §1

The test system of experiment [6] is Candida glabrata clinical isolate CG1. The experiment in a line: MIC, broth microdilution (CLSI M27-A3), CG1. Type of experiment: cell-based. To be noted: Nakaseomyces glabratus; MIC-0, CG1, 35 °C 48 h. The protocol: as §1
Experiment [7] relates to Aspergillus flavus ATCC MYA-3631 (strain K). The experiment in a line: MIC, filamentous fungi (CLSI M38-A2), strain K. Type of experiment: cell-based. To be noted: Aspergillus flavus, 72 h, MIC-0, strain K, 35 °C 72 h; read-out: MIC. The protocol: (§2) The spores were harvested from sporulating cultures growing on potato dextrose agar (PDA) by filtration through sterile glass wool and enumerated by using a hemocytometer (Hausser Scientific, Horsham, PA, USA) to obtain the desired inoculum size. Two-fold serial dilutions of compounds 3, 4, 7a, 7b, 9, and 16, as well as CAS and TOB were made in sterile 96-well microtiter plates to obtain the final concentration range of 0.24–62.5 μg/mL for TOB and TOB derivatives as well as 0.03–31.3 μg/mL for CAS in the RPMI 1640 medium. The spore suspensions were added to the wells to afford a final concentration of 5 × 10^5 spores/mL. The plates were incubated at 35 °C for 72 h. […] Each test was performed in triplicate.

For experiment [8], the system named is Candida glabrata clinical isolate CG2. The experiment is described as follows: MIC, broth microdilution (CLSI M27-A3), CG2. To be noted: Nakaseomyces glabratus; MIC-0, CG2, 35 °C 48 h. Type of experiment: cell-based. The protocol: as §1
The test system of experiment [9] is Candida parapsilosis ATCC 22019 (strain J). The experiment in a line: MIC, broth microdilution (CLSI M27-A3), yeast strain J. Type of experiment: cell-based. The conditions noted are these: Lodderomyces parapsilosis, ATCC22019; MIC-0, strain J, 35 °C 48 h. On the procedure: as §1
Experiment [10] relates to C. albicans ATCC MYA-2310(S) (strain E). The experiment in a line: MIC, broth microdilution (CLSI M27-A3), yeast strain E. To be noted: Candida albicans; MIC-0, strain E, 35 °C 48 h. Type of experiment: cell-based. On the procedure: as §1
The test system of experiment [11] is Cryptococcus neoformans clinical isolate CN1. The experiment is described as follows: MIC, broth microdilution (CLSI M27-A3), CN1. Type of experiment: cell-based. To be noted: MIC-0, CN1, 35 °C 48 h. The protocol: as §1
For experiment [12], the system named is Cryptococcus neoformans clinical isolate CN3. The experiment is described as follows: MIC, broth microdilution (CLSI M27-A3), CN3. Type of experiment: cell-based. The conditions noted are these: MIC-0, CN3, 35 °C 48 h. The protocol:
as §1

Experiment [13] relates to Aspergillus terreus ATCC MYA-3633 (strain M). The experiment is described as follows: MIC, filamentous fungi (CLSI M38-A2), strain M. Type of experiment: cell-based. To be noted: MIC-0, strain M, 35 °C 72 h. The protocol: as §2
Experiment [14] has as its system C. neoformans clinical isolates CN1-3. The experiment is described as follows: MIC across C. neoformans clinical isolates CN1-3. Type of experiment: cell-based, Cryptococcus neoformans. The protocol:
as §1

Experiment [15] concerns Candida krusei ATCC 6258 (strain I). The experiment in a line: MIC, broth microdilution (CLSI M27-A3), yeast strain I. Type of experiment: cell-based. The conditions noted are these: Pichia kudriavzevii, ATCC6258; MIC-0, strain I, 35 °C 48 h. The protocol: as §1
In experiment [16] the test system is C. albicans ATCC 64124 (strain B). The experiment is described as follows: MIC, broth microdilution (CLSI M27-A3), yeast strain B. To be noted: Candida albicans, ATCC64124; MIC-0, strain B, 35 °C 48 h. Type of experiment: cell-based. The protocol:
as §1

For experiment [17], the system named is Cryptococcus neoformans clinical isolate CN2. The experiment is described as follows: MIC, broth microdilution (CLSI M27-A3), CN2. Type of experiment: cell-based. To be noted: MIC-0, CN2, 35 °C 48 h. On the procedure: as §1
Experiment [18] relates to C. albicans ATCC MYA-1237(R) (strain F). The experiment is described as follows: MIC, broth microdilution (CLSI M27-A3), yeast strain F. Type of experiment: cell-based. The conditions noted are these: Candida albicans; MIC-0, strain F, 35 °C 48 h. The protocol:
as §1

Experiment [19] relates to Candida parapsilosis clinical isolate CP2. The experiment in a line: MIC, broth microdilution (CLSI M27-A3), CP2. Type of experiment: cell-based. The conditions noted are these: Lodderomyces parapsilosis; MIC-0, CP2, 35 °C 48 h. On the procedure: as §1
Experiment [20] relates to Candida parapsilosis clinical isolate CP1. The experiment in a line: MIC, broth microdilution (CLSI M27-A3), CP1. Type of experiment: cell-based. To be noted: Lodderomyces parapsilosis; MIC-0, CP1, 35 °C 48 h. On the procedure:
as §1

The test system of experiment [21] is C. albicans ATCC MYA-2876(S) (strain C). The experiment is described as follows: MIC, broth microdilution (CLSI M27-A3), yeast strain C. Type of experiment: cell-based. To be noted: Candida albicans; MIC-0, strain C, 35 °C 48 h. The protocol:
as §1

Experiment [22] has as its system C. albicans ATCC 10231 (strain A). The experiment in a line: MIC, broth microdilution (CLSI M27-A3), yeast strain A. The conditions noted are these: Candida albicans, ATCC10231; MIC-0, strain A, 35 °C 48 h. Type of experiment: cell-based, Candida albicans. The protocol:
as §1

The test system of experiment [23] is Aspergillus nidulans ATCC 38163 (strain L). The experiment is described as follows: MIC, filamentous fungi (CLSI M38-A2), strain L. The conditions noted are these: Aspergillus nidulans, ATCC38163, 72 h, MIC-0, strain L, 35 °C 72 h; read-out: MIC. Type of experiment: cell-based. On the procedure: as §2

Regarding `CC[C@H](C)C[C@H](C)CCCCCCCCC(=O)N[C@H]1C[C@@H](O)[C@@H](NCCN)NC(=O)[C@@H]2[C@@H](O)CCN2C(=O)[C@H]([C@H](O)CCN)NC(=O)[C@H]([C@H](O)[C@@H](O)c2ccc(O)cc2)NC(=O)[C@@H]2C[C@@H](O)CN2C(=O)[C@H]([C@@H](C)O)NC1=O` [CAS, caspofungin, reference compound], the minimum inhibitory concentration (MIC) in [1] came out at 0.975 µg/mL (≈ 0.892 µM); in experiment [2], 0.06 µg/mL (≈ 0.0549 µM); in [3], 0.12 µg/mL (≈ 0.11 µM); in experiment [4], 0.48 µg/mL (≈ 0.439 µM); in [5], 0.48 µg/mL (≈ 0.439 µM); in experiment [6], 1.95 µg/mL (≈ 1.78 µM). Moreover, the MIC in experiment [7] was > 31.3 µg/mL; in experiment [8] it was 0.24 µg/mL (≈ 0.22 µM); in [9] it was 1.95 µg/mL (≈ 1.78 µM); in experiment [10], 0.12 µg/mL (≈ 0.11 µM); in experiment [11], 15.6 µg/mL (≈ 14.3 µM); in experiment [12] it was 15.6 µg/mL (≈ 14.3 µM). Further, the MIC is > 31.3 µg/mL in [13]; 0.48 µg/mL (≈ 0.439 µM) in [15]; 0.24 µg/mL (≈ 0.22 µM) in experiment [16]; 31.3 µg/mL (≈ 28.6 µM) in experiment [17]; 0.24 µg/mL (≈ 0.22 µM) in experiment [18]; 0.48 µg/mL (≈ 0.439 µM) in [19]. The MIC in [20] was 0.48 µg/mL (≈ 0.439 µM); in experiment [21] it was 0.06 µg/mL (≈ 0.0549 µM); in experiment [22], 0.975 µg/mL (≈ 0.892 µM); in [23] it was > 31.3 µg/mL. In addition, the MIC values result in experiment [14] is given as “low to no activity”.

The MIC is the lowest concentration found to suppress growth.
